Here are results for seven compounds from patent US20240239861A1, “GLUCAGON-RECEPTOR SELECTIVE POLYPEPTIDES AND METHODS OF USE THEREOF” (i2O Therapeutics, Inc., priority 2016, published 2024).

Like-named read-outs stand apart in the source and are kept apart here. *1 amine or outer side, *2 acyl side, *3 side chain or, on linkers, in order; H or OH if unused. Where a SMILES comes first, the peptide text is derived from it. Side-chain parts run from the residue outwards. [ ]: non-standard residue; d: D form. The star is where a group is joined. γGlu = O=C(O)[C@H](CCC(=O)[*:2])N[*:1]; Palmitoyl = CCCCCCCCCCCCCCCC(=O)*; Aib = CC(C)(N)C(=O)O

Data set [1] has as its target human GLP-1R (Homo sapiens, UniProt P43220). In words: Peptide-receptor mediated cAMP accumulation (LANCE Ultra cAMP) in CHO-K1 cells transfected with human GLP-1R. It is filed as cell-based.
Data set [2] can be described thus: in vivo. The note with it: male, rat.
In data set [3] the target is human GCGR (Homo sapiens, UniProt P47871). The data set can be described thus: Peptide-receptor mediated cAMP accumulation (LANCE Ultra cAMP) in CHO-K1 cells transfected with human GCGR. It is filed as cell-based. In general terms: cAMP levels reflect the balance of adenylyl cyclase and phosphodiesterase activity.
Setting [4] is: hGLP1 pEC50 (cAMP mean (n = 3): 11 point curve starting at 1 nM, Table 3).
Setting [5] is: Table 7, GLP-1R, read-out: GLP-1R pEC50 (converted).
Where [6] appears, read: read-out: GluR pEC50 (converted).

human GLP-1R, sequence (P43220 24-463): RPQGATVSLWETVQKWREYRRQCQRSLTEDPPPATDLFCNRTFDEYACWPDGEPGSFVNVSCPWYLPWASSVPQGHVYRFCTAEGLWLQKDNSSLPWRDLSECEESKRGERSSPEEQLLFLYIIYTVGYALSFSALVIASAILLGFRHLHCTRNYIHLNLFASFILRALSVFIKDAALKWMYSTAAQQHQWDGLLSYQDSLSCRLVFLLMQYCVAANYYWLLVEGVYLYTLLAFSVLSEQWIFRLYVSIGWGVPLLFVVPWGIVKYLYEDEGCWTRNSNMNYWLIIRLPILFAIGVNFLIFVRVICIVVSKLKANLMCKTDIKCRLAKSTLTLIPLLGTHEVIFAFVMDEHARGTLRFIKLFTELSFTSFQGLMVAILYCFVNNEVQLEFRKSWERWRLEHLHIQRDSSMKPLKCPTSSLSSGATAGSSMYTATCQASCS
human GCGR, sequence (P47871 26-477): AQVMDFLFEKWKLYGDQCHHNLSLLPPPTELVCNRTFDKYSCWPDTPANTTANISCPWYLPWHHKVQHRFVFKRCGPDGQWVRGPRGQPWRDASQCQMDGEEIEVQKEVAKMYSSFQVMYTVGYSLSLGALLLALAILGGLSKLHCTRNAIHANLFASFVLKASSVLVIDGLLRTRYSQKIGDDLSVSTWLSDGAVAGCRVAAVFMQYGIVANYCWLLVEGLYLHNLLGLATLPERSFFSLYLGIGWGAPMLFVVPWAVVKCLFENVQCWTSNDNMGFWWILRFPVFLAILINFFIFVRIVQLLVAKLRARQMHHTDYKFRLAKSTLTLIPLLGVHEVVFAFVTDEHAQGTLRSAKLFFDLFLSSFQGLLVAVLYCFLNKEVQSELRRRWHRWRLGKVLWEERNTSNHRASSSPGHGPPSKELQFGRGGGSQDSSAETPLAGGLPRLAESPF

Turning to `CC(C)C[C@H](NC(=O)[C@H](Cc1ccc(O)cc1)NC(=O)[C@H](CCCCN)NC(=O)[C@H](CO)NC(=O)[C@H](Cc1ccc(O)cc1)NC(=O)[C@H](CC(=O)O)NC(=O)[C@H](CO)NC(=O)[C@@H](NC(=O)[C@H](Cc1ccccc1)NC(=O)[C@@H](NC(=O)CNC(=O)[C@H](Cc1c[nH]cn1)NC(=O)[C@H](CO)NC(=O)[C@@H](N)Cc1ccc(O)cc1)[C@@H](C)O)[C@@H](C)O)C(=O)N[C@@H](CC(=O)O)C(=O)NC(C)(C)C(=O)N[C@@H](CCCCN)C(=O)N[C@@H](CCCNC(=N)N)C(=O)N[C@@H](C)C(=O)N[C@@H](CCC(N)=O)C(=O)N[C@@H](CCC(=O)O)C(=O)N[C@@H](Cc1ccccc1)C(=O)N[C@H](C(=O)NC(C)(C)C(=O)N[C@@H](Cc1c[nH]c2ccccc12)C(=O)N[C@@H](CC(C)C)C(=O)N[C@@H](CCC(=O)O)C(=O)N[C@@H](CC(=O)O)C(=O)N[C@@H](CCC(=O)O)C(=O)NCC(=O)N1CCC[C@H]1C(=O)N[C@@H](CO)C(=O)N[C@@H](CO)C(=O)NCC(=O)N[C@@H](C)C(=O)N1CCC[C@H]1C(=O)N1CCC[C@H]1C(=O)N1CCC[C@H]1C(=O)N[C@@H](CO)C(=O)O)C(C)C` [Compound A28] (H-YSHGTFTSDYSKYLD[Aib]KRAQEFV[Aib]WLEDEGPSSGAPPPS-OH), the EC50 in data set [1] (setting [4]) was above 1 nM. Moreover, the clearance (as a rule, the rate of elimination divided by the concentration) in data set [2] came to 34.7 mL/min/kg.
The matching figures for `CC(C)C[C@H](NC(=O)[C@H](Cc1ccc(O)cc1)NC(=O)[C@H](CCCCN)NC(=O)[C@H](CO)NC(=O)[C@H](Cc1ccc(O)cc1)NC(=O)[C@H](CC(=O)O)NC(=O)[C@H](CO)NC(=O)[C@@H](NC(=O)[C@H](Cc1ccccc1)NC(=O)[C@@H](NC(=O)CNC(=O)[C@H](Cc1c[nH]cn1)NC(=O)[C@H](CO)NC(=O)[C@@H](N)Cc1ccc(O)cc1)[C@@H](C)O)[C@@H](C)O)C(=O)N[C@@H](CC(=O)O)C(=O)NC(C)(C)C(=O)N[C@@H](CCCCN)C(=O)N[C@@H](CCCNC(=N)N)C(=O)N[C@@H](C)C(=O)N[C@@H](CCC(N)=O)C(=O)N[C@@H](CCC(=O)O)C(=O)N[C@@H](Cc1ccccc1)C(=O)N[C@H](C(=O)NC(C)(C)C(=O)N[C@@H](Cc1c[nH]c2ccccc12)C(=O)N[C@@H](CC(C)C)C(=O)N[C@@H](CCC(=O)O)C(=O)N[C@@H](CC(=O)O)C(=O)N[C@@H](CCC(=O)O)C(=O)N1CCC[C@H]1C(=O)N[C@@H](CO)C(=O)N[C@@H](CO)C(=O)NCC(=O)N[C@@H](C)C(=O)N1CCC[C@H]1C(=O)N1CCC[C@H]1C(=O)N1CCC[C@H]1C(=O)N[C@@H](CO)C(N)=O)C(C)C` [Compound A8] (H-YSHGTFTSDYSKYLD[Aib]KRAQEFV[Aib]WLEDEPSSGAPPPS-NH2; N-terminus assumed): above 1 nM and 17 mL/min/kg.
For the compound `CCCCCCCCCCCCCCCC(=O)N[C@@H](CCC(=O)NCCCC[C@H](NC(=O)[C@@H](NC(=O)[C@H](Cc1ccccc1)NC(=O)[C@H](CCC(=O)O)NC(=O)[C@H](CCC(N)=O)NC(=O)[C@H](C)NC(=O)[C@H](CCCNC(=N)N)NC(=O)[C@H](C)NC(=O)[C@H](CO)NC(=O)[C@H](CC(=O)O)NC(=O)[C@H](CC(C)C)NC(=O)[C@H](Cc1ccc(O)cc1)NC(=O)[C@H](CCCCN)NC(=O)[C@H](CO)NC(=O)[C@H](Cc1ccc(O)cc1)NC(=O)[C@H](CC(=O)O)NC(=O)[C@H](CO)NC(=O)[C@@H](NC(=O)[C@H](Cc1ccccc1)NC(=O)[C@@H](NC(=O)CNC(=O)[C@H](Cc1c[nH]cn1)NC(=O)[C@H](CO)NC(=O)[C@@H](N)Cc1ccc(O)cc1)[C@@H](C)O)[C@@H](C)O)C(C)C)C(=O)N[C@@H](Cc1c[nH]c2ccccc12)C(=O)N[C@@H](CC(C)C)C(=O)N[C@@H](CCC(=O)O)C(=O)N[C@@H](CC(=O)O)C(=O)N[C@@H](CCC(=O)O)C(=O)N1CCC[C@H]1C(=O)N[C@@H](CO)C(=O)N[C@@H](CO)C(=O)NCC(=O)N[C@@H](C)C(=O)N1CCC[C@H]1C(=O)N1CCC[C@H]1C(=O)N1CCC[C@H]1C(=O)N[C@@H](CO)C(N)=O)C(=O)O` [Compound B42] (H-YSHGTFTSDYSKYLDSARAQEFVK([γGlu-Palmitoyl])WLEDEPSSGAPPPS-NH2), the EC50 is above 1000 nM in data set [1] (setting [5]) and 0.2 nM in data set [3] (setting [6]).
The matching figures for `CC(C)C[C@H](NC(=O)[C@H](Cc1ccc(O)cc1)NC(=O)[C@H](CCCCN)NC(=O)[C@H](CO)NC(=O)[C@H](Cc1ccc(O)cc1)NC(=O)[C@H](CC(=O)O)NC(=O)[C@H](CO)NC(=O)[C@@H](NC(=O)[C@H](Cc1ccccc1)NC(=O)[C@@H](NC(=O)CNC(=O)[C@H](Cc1c[nH]cn1)NC(=O)[C@H](CO)NC(=O)[C@@H](N)Cc1ccc(O)cc1)[C@@H](C)O)[C@@H](C)O)C(=O)N[C@@H](CC(=O)O)C(=O)NC(C)(C)C(=O)N[C@@H](CCCCN)C(=O)N[C@@H](Cc1ccc(O)cc1)C(=O)N[C@@H](C)C(=O)N[C@@H](CCC(N)=O)C(=O)N[C@@H](CCC(=O)O)C(=O)N[C@@H](Cc1ccccc1)C(=O)N[C@H](C(=O)NC(C)(C)C(=O)N[C@@H](Cc1c[nH]c2ccccc12)C(=O)N[C@@H](CC(C)C)C(=O)N[C@@H](CCC(=O)O)C(=O)N[C@@H](CC(=O)O)C(=O)N[C@@H](CCC(=O)O)C(=O)N1CCC[C@H]1C(=O)N[C@@H](CO)C(=O)N[C@@H](CO)C(=O)N[C@@H](CCCCNC(=O)COCCOCCNC(=O)COCCOCCNC(=O)CC[C@H](NC(=O)CCCCCCCCCCCCCCCCC(=O)O)C(=O)O)C(=O)N[C@@H](C)C(=O)N1CCC[C@H]1C(=O)N1CCC[C@H]1C(=O)N1CCC[C@H]1C(=O)N[C@@H](CO)C(=O)O)C(C)C` [Compound B5]: above 1000 nM and 0.251 nM.
As to `CC(C)C[C@H](NC(=O)[C@H](Cc1c[nH]c2ccccc12)NC(=O)[C@H](CCCCN)NC(=O)[C@H](CO)NC(=O)[C@H](Cc1c[nH]cn1)NC(=O)[C@H](CC(=O)O)NC(=O)[C@H](CO)NC(=O)[C@@H](NC(=O)[C@H](Cc1ccccc1)NC(=O)[C@@H](NC(=O)CNC(=O)[C@H](Cc1c[nH]cn1)NC(=O)[C@H](CO)NC(=O)[C@@H](N)Cc1ccc(O)cc1)[C@@H](C)O)[C@@H](C)O)C(=O)N[C@@H](CC(=O)O)C(=O)N[C@@H](CO)C(=O)N[C@@H](C)C(=O)N[C@@H](CCCNC(=N)N)C(=O)N[C@@H](C)C(=O)N[C@@H](CCC(N)=O)C(=O)N[C@@H](CCC(=O)O)C(=O)N[C@@H](Cc1ccccc1)C(=O)N[C@H](C(=O)N[C@@H](CCCCN)C(=O)N[C@@H](Cc1c[nH]c2ccccc12)C(=O)N[C@@H](CC(C)C)C(=O)N[C@@H](CCC(=O)O)C(=O)N[C@@H](CC(=O)O)C(=O)N[C@@H](CCC(=O)O)C(=O)N1CCC[C@H]1C(=O)N[C@@H](CO)C(=O)N[C@@H](CO)C(=O)NCC(=O)N[C@@H](C)C(=O)N1CCC[C@H]1C(=O)N1CCC[C@H]1C(=O)N1CCC[C@H]1C(=O)N[C@@H](CO)C(=O)O)C(C)C` [Compound A40] (H-YSHGTFTSDHSKWLDSARAQEFVKWLEDEPSSGAPPPS-OH; N-terminus assumed), the figures for the EC50 in data set [1] (setting [4]) and in data set [3] (Table 3) were above 1 nM and 0.0794 nM, respectively.
Regarding `CCCCCCCCCCCCCCCC(=O)N[C@@H](CCC(=O)NCCCC[C@H](NC(=O)[C@H](CC(=O)O)NC(=O)[C@H](CO)NC(=O)[C@@H](NC(=O)[C@H](Cc1ccccc1)NC(=O)[C@@H](NC(=O)CNC(=O)[C@H](Cc1c[nH]cn1)NC(=O)[C@H](CO)NC(=O)[C@@H](N)Cc1ccc(O)cc1)[C@@H](C)O)[C@@H](C)O)C(=O)N[C@@H](CO)C(=O)N[C@@H](CCCCN)C(=O)N[C@@H](Cc1ccc(O)cc1)C(=O)N[C@@H](CC(C)C)C(=O)N[C@@H](CC(=O)O)C(=O)NC(C)(C)C(=O)N[C@@H](CCCCN)C(=O)N[C@@H](CCCNC(=N)N)C(=O)N[C@@H](C)C(=O)N[C@@H](CCC(N)=O)C(=O)N[C@@H](CCC(=O)O)C(=O)N[C@@H](Cc1ccccc1)C(=O)N[C@H](C(=O)N[C@H](C(=O)N[C@@H](Cc1c[nH]c2ccccc12)C(=O)N[C@@H](CC(C)C)C(=O)N[C@@H](CCC(=O)O)C(=O)N[C@@H](CC(=O)O)C(=O)N[C@@H](CCC(=O)O)C(=O)N1CCC[C@H]1C(=O)N[C@@H](CO)C(=O)N[C@@H](CO)C(=O)NCC(=O)N[C@@H](C)C(=O)N1CCC[C@H]1C(=O)N1CCC[C@H]1C(=O)N1CCC[C@H]1C(=O)N[C@@H](CO)C(=O)O)[C@@H](C)CC)C(C)C)C(=O)O` [Compound B27] (H-YSHGTFTSDK([γGlu-Palmitoyl])SKYLD[Aib]KRAQEFVIWLEDEPSSGAPPPS-OH), the EC50 in data set [1] (setting [5]) was 251 nM; in data set [3] (setting [6]) it was 0.00316 nM.
The matching figures for `CCCCCCCCCCCCCCCC(=O)N[C@@H](CCC(=O)NCCCC[C@H](NC(=O)[C@H](CO)NC(=O)[C@H](CO)NC(=O)[C@@H]1CCCN1C(=O)[C@H](CCC(=O)O)NC(=O)[C@H](CC(=O)O)NC(=O)[C@H](CCC(=O)O)NC(=O)[C@H](CC(C)C)NC(=O)[C@H](Cc1c[nH]c2ccccc12)NC(=O)C(C)(C)NC(=O)[C@@H](NC(=O)[C@H](Cc1ccccc1)NC(=O)[C@H](CCC(=O)O)NC(=O)[C@H](CCC(N)=O)NC(=O)[C@H](C)NC(=O)[C@H](CCCNC(=N)N)NC(=O)[C@H](CCCCN)NC(=O)C(C)(C)NC(=O)[C@H](CC(=O)O)NC(=O)[C@H](CC(C)C)NC(=O)[C@H](Cc1ccc(O)cc1)NC(=O)[C@H](CCCCN)NC(=O)[C@H](CO)NC(=O)[C@H](Cc1ccc(O)cc1)NC(=O)[C@H](CC(=O)O)NC(=O)[C@H](CO)NC(=O)[C@@H](NC(=O)[C@H](Cc1ccccc1)NC(=O)[C@@H](NC(=O)CNC(=O)[C@H](CCC(N)=O)NC(=O)[C@H](CO)NC(=O)[C@@H](N)Cc1c[nH]c2ccccc12)[C@@H](C)O)[C@@H](C)O)C(C)C)C(=O)N[C@@H](C)C(=O)N1CCC[C@H]1C(=O)N1CCC[C@H]1C(=O)N1CCC[C@H]1C(=O)N[C@@H](CO)C(=O)O)C(=O)O` [Compound B17] (H-WSQGTFTSDYSKYLD[Aib]KRAQEFV[Aib]WLEDEPSSK([γGlu-Palmitoyl])APPPS-OH): above 1000 nM and 0.0316 nM.
